According to patent US7691969B2, “Isolated GRP94 ligand binding domain polypeptide and nucleic acid encoding same, crystalline form of same, and screening methods employing same” (Duke University, priority 2001, dated 2010):

Tests used:
[1] = biological target: T1, GRP94 (Sus scrofa, UniProt Q29092); experiment: [3H]-NECA competitive displacement assay; type: binding, porcine
T1 construct: GRP94 was purified from porcine pancreas rough microsomes; from tissue; host or cells: porcine pancreas rough microsomes (lumenal contents)
T1 sequence (Q29092 22-804): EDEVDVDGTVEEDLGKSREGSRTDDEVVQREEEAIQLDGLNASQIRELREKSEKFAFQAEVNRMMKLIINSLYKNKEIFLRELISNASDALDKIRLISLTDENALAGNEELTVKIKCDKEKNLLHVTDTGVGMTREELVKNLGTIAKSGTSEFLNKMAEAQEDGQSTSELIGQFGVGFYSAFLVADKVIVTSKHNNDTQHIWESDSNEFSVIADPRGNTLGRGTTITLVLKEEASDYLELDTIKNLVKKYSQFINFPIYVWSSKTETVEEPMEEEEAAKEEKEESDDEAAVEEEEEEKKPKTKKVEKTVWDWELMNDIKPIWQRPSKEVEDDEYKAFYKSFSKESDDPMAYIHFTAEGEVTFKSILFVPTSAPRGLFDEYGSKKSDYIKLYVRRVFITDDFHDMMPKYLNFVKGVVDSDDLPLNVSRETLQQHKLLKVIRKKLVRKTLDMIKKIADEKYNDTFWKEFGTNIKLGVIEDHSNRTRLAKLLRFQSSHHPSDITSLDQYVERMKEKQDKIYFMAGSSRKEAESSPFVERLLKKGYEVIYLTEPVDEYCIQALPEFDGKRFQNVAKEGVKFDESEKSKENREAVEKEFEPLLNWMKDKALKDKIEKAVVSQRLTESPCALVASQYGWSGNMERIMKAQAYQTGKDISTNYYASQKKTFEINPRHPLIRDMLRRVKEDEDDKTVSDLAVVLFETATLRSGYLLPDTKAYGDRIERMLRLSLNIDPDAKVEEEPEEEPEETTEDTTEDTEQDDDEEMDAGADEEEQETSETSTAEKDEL
Procedure: Where indicated, binding reactions were performed in either buffer C (10 mM Tris, pH 7.5, 50 mM KCl, 5 mM MgCl2, 2 mM DTT, 0.01% NP-40, 20 mM Na2MoO4) or 50 mM Tris, pH 7.5, 10 mM Mg(OAc)2. […] Vacuum filtration was performed with an Amersham Pharmacia Biotech (Piscataway, N.J.) vacuum filtration manifold.
All binding reactions were performed in triplicate and corrected by subtraction of background values, determined in binding reactions lacking GRP94.

[2] = biological target: T1, GRP94; experiment: Tryptophan fluorescence (tertiary conformational state); type: biochemical, porcine; settings: 50 μM NECA, 50 μM geldanamycin, 2.5 mM ATP or 2.5 mM ADP; 1 h 37° C.
Procedure: Tryptophan Fluorescence. Tryptophan fluorescence measurements were conducted in a FLUOROMAX™ spectrofluorometer (Spex Industries, Inc. of Edison, N.J.) with the slit widths set to 1 nm for both excitation and emission. […] All spectra were corrected by subtraction of buffer or buffer plus ligand samples. GRP94 (50 μg/ml) was incubated in buffer A supplemented with 10 mM Mg(OAc)2 and the following concentrations of ligands for 1 hour at 37° C. […] Samples were then cooled to room temperature, transferred to a quartz cuvette, and the spectra collected.

[3] = tested on: BiP; experiment: ATP binding assay ([32P]ATP, nitrocellulose filtration); design: species or system porcine; settings: 50 μM [32P]ATP, 1 h on ice
Procedure: (§1) ATP Binding Assay. Six μg of GRP94, BiP, and Hsp90 was incubated with 50 μM […] (1000 μCi/μmol) (Amersham Pharmacia Biotech of Piscataway, N.J.) in buffer B on ice for 1 hour. Nitrocellulose filters (BA85) (Schleicher & Schuell of Keene, N.H.) were individually wet in buffer B before use, and bound versus free [^32P]-ATP was separated by vacuum filtration. Filters were washed with 3×2 mL of ice cold buffer B, placed in 5 mL of scintillation fluid, vortexed, and counted.

[4] = biological target: T1, GRP94; experiment: as above; design: species or system porcine; settings: 50 μM [32P]ATP, 1 h on ice
Procedure: as §1

[5] = biological target: HSP90 (Saccharomyces cerevisiae, UniProt P02829); settings: Prodromou et al. (1997); cited from earlier work
Sequence of HSP90 (Saccharomyces cerevisiae, UniProt P02829) (P02829 whole entry): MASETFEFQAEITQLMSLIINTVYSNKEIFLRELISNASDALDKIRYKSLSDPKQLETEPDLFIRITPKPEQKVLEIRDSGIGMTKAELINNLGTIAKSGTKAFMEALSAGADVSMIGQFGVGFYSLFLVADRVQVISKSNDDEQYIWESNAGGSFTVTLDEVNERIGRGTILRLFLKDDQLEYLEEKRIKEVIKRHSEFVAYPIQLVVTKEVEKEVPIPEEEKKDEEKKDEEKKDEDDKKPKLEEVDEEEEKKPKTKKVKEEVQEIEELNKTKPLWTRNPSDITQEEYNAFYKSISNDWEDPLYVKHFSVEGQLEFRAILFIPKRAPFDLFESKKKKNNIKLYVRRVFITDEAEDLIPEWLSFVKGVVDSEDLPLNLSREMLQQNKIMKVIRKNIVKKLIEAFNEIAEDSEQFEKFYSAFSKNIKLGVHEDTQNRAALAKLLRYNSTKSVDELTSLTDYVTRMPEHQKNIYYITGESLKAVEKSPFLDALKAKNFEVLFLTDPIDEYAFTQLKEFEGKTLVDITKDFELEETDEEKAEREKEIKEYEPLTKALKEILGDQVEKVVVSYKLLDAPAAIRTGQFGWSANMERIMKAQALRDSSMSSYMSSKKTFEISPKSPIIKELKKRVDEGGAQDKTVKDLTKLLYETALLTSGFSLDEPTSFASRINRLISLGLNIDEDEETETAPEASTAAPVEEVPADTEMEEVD

[6] = biological target: HSP90 (Homo sapiens, UniProt P07900); experiment: Conformational analysis by proteolysis (trypsin, SDS-PAGE); type: biochemical
[7] = biological target: T1, GRP94; experiment: as above; type: biochemical, porcine; settings: 5 μM GRP94, 50 μM bis-ANS, 1 h 37° C.; 0.1% trypsin 30 min
Procedure: Conformational Analysis by Proteolysis. The conformational state of GRP94 was assessed by tryptic digestion of the protein and subsequent SDS-PAGE analysis. […] Samples were then combined with 0.1% trypsin and digested for 30 minutes at 37° C. An equal volume of SDS-PAGE sample buffer was added and the samples were snap frozen in liquid nitrogen. Immediately prior to gel analysis, samples were thawed and boiled for 5 minutes. […] Gels were fixed and stained with Coomassie Blue. For time course experiments, excess free bis-ANS was removed immediately prior to trypsinization by gel filtration on 0.5 ml G-25 SEPHADEX® spin columns.

[8] = biological target: T1, GRP94; experiment: Native blue electrophoresis (BN-PAGE) of oligomeric state; type: biochemical, porcine; settings: ten-fold molar excess of bis-ANS
Procedure: Native Blue Electrophoresis. The oligomeric state of GRP94 was assayed by blue native polyacrylamide gel electrophoresis (BN-PAGE) as described by Schagger et al. (1994) Anal Biochem 217:220-230. GRP94 was either heat shocked or exposed to a 10-fold molar excess of bis-ANS for the indicated times. Samples were then dissolved in 15% glycerol and loaded onto 5-18% gradient gels with 0.02% Coomassie Brilliant Blue in the cathode buffer. Gels were run at 4° C., stained with Coomassie Blue, de-stained and dried.

[9] = biological target: T1, GRP94; experiment: Citrate synthase thermal aggregation assay (chaperone activity); type: biochemical, porcine; settings: 1 μM GRP94 preincubated 2 h with 10 μM bis-ANS; 0.15 μM citrate synthase, 43° C.
Procedure: Citrate Synthase Aggregation Assays. The effects of GRP94 on the thermal aggregation of citrate synthase were assayed by the methods described by Buchner et al. (1998) Methods Enzymol 290:323-338. Samples containing no protein, or GRP94 (1 μM), were incubated in 40 mM HEPES pH 7.5 for two hours at 37° C. with either 0.2% DMF or 10 µM bis-ANS. The samples were then warmed to 43° C. for five minutes and placed in a spectrofluorometer thermostatted at 43° C. Citrate synthase was then added to 0.15 μM final concentration and the thermal aggregation of the enzyme followed by light scattering. Excitation and emission wavelengths were both 500 nm with 2 nm slit width. The time course of citrate synthase aggregation was followed for 1000 seconds.
To determine if the bis-ANS-dependent conformational changes in GRP94 were of functional significance, the molecular chaperone activities of native, heat shocked and bis-ANS treated GRP94 were evaluated in a thermal aggregation assay, as described by Jakob et al. (1995) J Biol Chem 270:7288-7294 and Buchner et al. (1998) Methods Enzymol 290:323-338. […] Following experimental treatment of the GRP94, reactions were equilibrated at 43° C., citrate synthase then added and aggregation, as represented by light scattering, was measured.

[10] = biological target: T1, GRP94; experiment: Identification of the bis-ANS binding site (photo-crosslinking, Edman sequencing); design: species or system porcine
Procedure: Identification of the bis-ANS binding site. […] Following photocrosslinking, GRP94-bis-ANS complexes were digested with trypsin for one hour at 37° C.
As described in Materials and Methods, GRP94 was combined with an excess of bis-ANS and photo-crosslinked on ice for 15 minutes. GRP94 was subsequently digested with trypsin, the fluorescent peptides purified by HPLC, and the sequence of the labeled peptides determined by Edman sequencing.

[11] = biological target: T1, GRP94; experiment: Far-UV circular dichroism; type: biochemical, porcine; settings: 1 μM GRP94, 10 μM bis-ANS, 2 h
Procedure: Circular Dichroism Measurements. Far-UV CD spectrometry was performed on an AVIV Associates 62DS™ circular dichroism spectrometer (AVIV Associates of Lakewood, N.J.). Samples were analyzed in a 1 mm path length quartz cuvette at 37° C. GRP94 samples (1 μM) were prepared in standard phosphate buffered saline solution as buffer A produced unacceptable dynode voltages in the relevant region of the spectrum. GRP94 was incubated with 10 µM bis-ANS for 2 hours at 37° C. prior to obtaining spectra. Spectra were recorded from 300 to 195 nm. The α-helical content of GRP94 was calculated from the molar ellipticity at 222 nm. See Myers & Jakoby (1975) J Biol Chem 250:3785-3789.

[12] = biological target: T1, GRP94; experiment: Fluorophore binding to native and heat shocked GRP94 (fluorescence emission); design: species or system porcine
Source text: Fluorophore Binding Reactions.
Fluorescence Measurements. […] All spectra were background corrected.
To characterize the structural basis for the heat shock dependent activation of GRP94 activity, the interaction of polarity-sensitive fluorophores with native and heat shocked GRP94 was examined. The three probes tested, Prodan (6-propionyl-2-(dimethylamino)naphthalene), 8-ANS (1,8-anilinonaphthalenesulfonate) and bis-ANS (bis(1,8-anilino-naphthalenesulfonate) are structurally related probes that bind to hydrophobic sites on proteins and undergo substantial fluorescence spectrum changes upon introduction into nonpolar environments, as discussed by Rosen & Weber (1969) Biochemistry 8:3915-3920; Weber & Farris (1979) Biochemistry 18:3075-3078; Takashi et al. (1977) Proc Natl Acad Sci USA 74:2334-2338; Shi et al. (1994) Biochemistry 33:7536-7546. The following experimental protocol was utilized. GRP94 was warmed to 37° C. and either maintained at 37° C. or heat shocked for 15 minutes at 50° C., followed by incubation at 37° C. Subsequently, probe stocks were added to the GRP94 stocks and emission spectra recorded after 30 min at 37° C.
Under the experimental conditions used in this series of experiments, bis-ANS binding to GRP94 was near maximal at a 20-fold molar excess of GRP94 monomer over bis-ANS, with half maximal binding observed at 110 nM GRP94 (FIG. 2B).

| Molecule | molar excess required for 50% inhibition of [3H]-NECA binding ([1]; 20 nM [3H]-NECA) | effect of excess Mg2+ on binding to GRP94 ([1]; 10 mM Mg(OAc)2 versus nominal magnesium) | nucleoside base specificity: binding to GRP94 by [3H]-NECA displacement ([1]; competitors at 50 μM) | relative affinities for GRP94 in presence of Mg2+ ([1]; excess Mg2+) | efficacy of competing NECA binding, ATP relative to ADP ([1]; no excess Mg2+) | change of GRP94 tryptophan fluorescence [2] | ATP binding [3] | ATP binding [4] | Kd [5] [µM] | trypsin proteolysis pattern of HSP90 [6] | trypsin proteolysis pattern of GRP94 [7] | quaternary structure (oligomerization) of GRP94 [8] | thermal aggregation of citrate synthase in presence of treated GRP94 [9] | site of bis-ANS binding to GRP94 (labeled peptide) [10] | secondary structure of GRP94 (CD spectra) [11] | agonist activity for GRP94 activation [12] | fluorophore binding to native versus heat shocked GRP94 (fluorescence emission) ([12]; 0.5 μM GRP94, 5 μM probe, 37° C.) | Kd ([12]; fixed 50 nM bis-ANS, increasing GRP94, excitation 393 nm, emission 475 nm, read-out: half maximal binding of bis-ANS to heat shocked GRP94 (GRP94 concentration)) [µM] | molar excess of GRP94 monomer over bis-ANS at near maximal binding ([12]; heat shocked GRP94) |
| --- | --- | --- | --- | --- | --- | --- | --- | --- | --- | --- | --- | --- | --- | --- | --- | --- | --- | --- | --- |
| Nc1ncnc2c1ncn2[C@@H]1O[C@H](COP(=O)(O)OP(=O)(O)OP(=O)(O)O)[C@@H](O)[C@H]1O [ATP] | ~1000 -fold molar excess | markedly stimulated the binding of ATP, ADP and AMP | GRP94 could bind both ATP and deoxyATP | nearly identical relative affinities | eight-fold higher efficacy than ADP | the tryptophan fluorescence was decreased | displayed the expected ATP binding activity | no ATP binding was observed to Hsp90 or GRP94 | 132 |  |  |  |  |  |  |  |  |  |  |
| 4,4′-dianilino-1,1-binaphthyl-5,5-disulfonic acid [bis-ANS] |  |  |  |  |  |  |  |  |  | Essentially identical proteolysis patterns were observed following either heat shock or bis-ANS treatment of HSP90 | substantially reduced recovery of the prominent proteolysis products | induces changes in the quaternary structure of GRP94 that mimic those seen upon heat shock | no thermal aggregation of citrate synthase was detectable | mapped to residues 271-281 of the N-terminal domain of GRP94 | does not alter GRP94 secondary structure | both an agonist for GRP94 activation as well as an indicator for the relative state of activation | a level of fluorophore binding similar to that seen with heat shocked GRP94 was observed | 0.11 | 20 -fold |
